Laboratory results reported in patent US20080299109A1, “MECHANISM OF ASTRICYTE-NEURON SIGNALING” (Korea Institute of Science and Technology, priority 2007, published 2008).

How the values were obtained:
synaptic NMDA receptors [1] = test: Evoked NMDA EPSC current-voltage relationship in CA1 pyramidal cells; format: cell-based, rat; settings: 100 μM APV
Method: (§1) Young rats (Sprague-Dawley, age P15-P20) or mice (C57/B16, age P14-19) were deeply anesthetized with isoflurane and decapitated. The brain was rapidly removed and submerged in an ice-cold oxygenated artificial cerebrospinal fluid (ACSF) comprised of 130 mM NaCl, 24 mM NaHCO3, 3.5 mM KCl, 1.25 mM NaH2PO4, 1 mM CaCl2,3 mM MgCl2, and 10 mM glucose saturated with 95% O2/5% CO2, at pH 7.4.
Slices were placed on the stage of an upright microscope underneath a platinum and nylon restraining grid, and superfused with oxygenated ACSF at room temperature (23° C.), some experiments are performed at 34° C. by a temperature controller (TC-344B, Warner, Hamden). The standard ACSF recording solution was comprised of 130 mM NaCl, 24 mM NaHCO3, 3.5 mM KCl, 1.25 mM NaH2PO4, 1.5 mM CaCl2, 1.5 mM MgCl2, and 10 mM glucose saturated with 95% O2/5% CO2, at pH 7.4. […]
(§2) Synaptic responses were evoked by applying 0.1 ms current injection (1-100 μA) to a bipolar stimulating electrode placed in the stratum radiatum. Thrombin (Calbiochem) concentration was determined as described by Gingrich et al. (2000) using conversion of 1 U/ml=10 nM. […]
EPSCs were evoked by electrical stimulation of Schaffer collateral axons in the CA1 stratum radiatum, and recorded from CA1 pyramidal neurons under voltage clamp. […]

[2] = system: PAR1−/− cortical neurons on wild-type astrocyte monolayer; test: PAR1−/− cortical neurons co-cultured on wild-type astrocytes: dendritic Ca2+ and voltage clamp; format: cell-based, mouse
Method: For an astrocyte-neuron co-culture, a monolayer of wild-type astrocytes was grown to 70-100% confluency (7-14 days in culture). Subsequently, the cortex from a P0 to P5 PAR1−/− mouse (Connolly et al., 1996) was dissected free of meninges and digested for 30 min in 1 mg/ml trypsin at 37° C. PAR1−/− mice were >99% C57B1/6 (>7 backcrossings), and wild-type mice were from a colony derived from PAR1−/− littermates.
All experiments were done within 3 generations of establishing the homozygous colony. The cortical cells were plated at low density on top of the monolayer of wild-type astrocytes obtained in above Example 1.1. Neurons were used for Ca^2+ imaging after 1-5 days in culture.
Whole-cell perforated-patch recording from cultured cortical neurons or HEK cells under voltage clamp (holding potential −60 mV) was made with an Axopatch 200B amplifier (Axon Instruments, Union City, Calif.). The recording chamber was continually perfused with a recording solution comprised of 150 mM NaCl, 3 mM KCl, 2 mM CaCl2, 5.5 mM glucose, and 10 mM HEPES (pH 7.4 by NaOH; osmolality adjusted to 315-320 mOsm with sucrose). Recording electrodes (4-7 MΩ) were filled with (in mM) 150 mM CsMeSO4, 10 mM NaCl, 0.5 CaCl2, 10 mM HEPES, and 25-50 μg/ml gramicidin D (pH adjusted to 7.3 with CsOH and osmolality adjusted to 310 mOsm with sucrose). It took 20-30 min to achieve acceptable perforation with series resistance ranging from 30-60 MΩ. All electrophysiological data from cultured neurons cells in this study were collected at room temperature (23-26° C.).
After a 20 min recovery, the bath perfusion was stopped and TFLLR was applied by brief (<1 sec) pressure ejection onto the astrocyte hosting the dye-loaded neuron in a static bath condition. Changes in fluorescence were monitored in a number of dendritic processes (schematized in FIGS. 8a and 8b).

CA1 pyramidal cells = test: Current clamp membrane potential of CA1 pyramidal cells in hippocampal slices; format: cell-based, rat; settings: APV itself
Method: as §1
The hemisected brain was glued onto the stage of a vibrating microtome (Leica VT1000 S) and sections of 300 μm thickness were cut and stored in an incubation chamber at room temperature for about 1 h before use. For voltage clamp experiments, the solution used to fill the electrodes was comprised of 140 mM Cs-MeSO4, 10 mM HEPES, 7 mM NaCl, 4 mM Mg-ATP, and 0.3 mM Na3-GTP; the solution for current clamp recordings was comprised of 140 mM K-MeSO4, 10 mM HEPES, 7 mM NaCl, 4 mM Mg-ATP, and 0.3 mM Na3-GTP, and supplemented with 1 mM QX314; and 1 mM QX314 was omitted from some current clamp recordings (e.g., FIG. 9e).
Slices were placed on the stage of an upright microscope underneath a platinum and nylon restraining grid, and superfused with oxygenated ACSF at room temperature (23° C.), some experiments are performed at 34° C. by a temperature controller (TC-344B, Warner, Hamden). The standard ACSF recording solution was comprised of 130 mM NaCl, 24 mM NaHCO3, 3.5 mM KCl, 1.25 mM NaH2PO4, 1.5 mM CaCl2, 1.5 mM MgCl2, and 10 mM glucose saturated with 95% O2/5% CO2, at pH 7.4. For some experiments 0.5-1 μM TTX, 10 μM NBQX, or 10-20 μM bicuculline were added to the extracellular solution, extracellular Mg^2+ was reduced to 5 μM, and/or extracellular Ca^2+ raised to 2 mM.
Visually guided whole-cell patch recordings were obtained from CA1 pyramidal neurons in a voltage clamp or current clamp configuration using an Axopatch 200A (Axon Instruments) and a borosilicate patch pipette of 5-7 MΩ resistance. […] Records were filtered at 5 kHz and digitized at 20 kHz using a Digidata 1200 A/D board.
Synaptic responses were evoked by applying 0.1 ms current injection (1-100 μA) to a bipolar stimulating electrode placed in the stratum radiatum. Thrombin (Calbiochem) concentration was determined as described by Gingrich et al. (2000) using conversion of 1 U/ml=10 nM. TFLLR and thrombin were applied by gravity perfusion at 1.0 ml/min, with extensive washing of perfusion lines, chamber, and objective between experiments to remove all residual thrombin, which has been reported to irreversibly cleave and PAR1 at a pM concentration. Removal of all thrombin ensured that PAR1 receptors were not pre-cleaved by residual thrombin prior to experimentation.

[3] = system: NMDA receptor-mediated component of the EPSP; test: Current clamp EPSP recording in CA1 pyramidal cells; format: cell-based, rat; settings: 50 μM APV
Method: as §1
The hemisected brain was glued onto the stage of a vibrating microtome (Leica VT1000 S) and sections of 300 μm thickness were cut and stored in an incubation chamber at room temperature for about 1 h before use. […]
as §2
A series of current clamp experiments were carried out to directly measure the effects of PAR1 activation on the NMDA receptor-mediated component of the EPSP recorded in the presence of 1.5 mM Mg^2+. […]

synaptic NMDA receptors [4] = test: Miniature EPSC analysis in CA1 pyramidal cells; format: cell-based, rat; settings: APV 50 μM
From the text: Miniature EPSCs (mEPSCs) were digitized at 10 KHz and the records were filtered with a digital Gaussian filter (−3 dB) with a cutoff frequency of 1 kHz. The mEPSCs were automatically detected and grouped based on an amplitude threshold of 10 pA and a rise time between 0 to 5 (fast rise time) and 5 to 10 ms (slow rise time); a small number of apparent mEPSCs with rise times slower than 10 ms were not studied further. Selected mEPSCs were scaled, averaged, and fitted with a sum of two exponential functions,
Response Amplitude(t)=Amplitude1exp(−time/τ1)+Amplitude2exp(−time/τ2).
If the first decay constant (τ1) and the second decay constant (τ2) were within 10%, the curve was subsequently refitted with a single exponential function. Both the frequency and the peak amplitude of detected events were analyzed. […] All data were acquired, stored, and analyzed using pClamp 8 (Axon Instruments, Foster City, Calif.) and Mini Analysis Program (Synaptosoft). […]
To investigate the effects of PAR1 activation on synaptic NMDA receptors in normal concentrations of Mg^2+ (1.5 mM), the inventors recorded spontaneous miniature excitatory postsynaptic currents (mEPSCs) at −60 mV in the presence of 0.5 μM TTX to look for changes in the amplitude and decay kinetics of individual synaptic currents.

SMILES: N[C@H](CCCP(=O)(O)O)C(=O)O [APV, D-2-amino-5-phosphono-valeric acid]
- effect on NMDA component of evoked EPSCs (synaptic NMDA receptors [1]): blocked
- peak amplitude of TFLLR-evoked current in presence of APV ([2]; 30 μM TFLLR, 50 μM APV): 2.5±0.3 pA
- effect on TFLLR-induced dendritic fluorescence increase ([2]; APV 50 μM): blocked
- effect on resting membrane potential of CA1 neurons (CA1 pyramidal cells): 0.4±0.7 mV
- effect on TFLLR potentiation of EPSP area [3]: reversed
- effect on TFLLR-induced τ2 (synaptic NMDA receptors [4]): eliminated
